From patent US8455435B2, “Remedies for ischemia” (Ludwig-Maximilians-Universitat Munchen, priority 2006, dated 2013)
Several values for one entry are separate records, joined by “and”; a condition that tells them apart may be missing. Equal entries are not always repeated.

Legend:
[1] = system: BrdU and Ki67 positive cells; assay: Immunohistochemistry of cell proliferation (BrdU, Ki67) after MI, PTH treatment; assay type: in vivo, C57BL/6 mice
Protocol: (§1) After occlusion of the LAD, mice were divided into the following groups 1) subcutaneous administration of saline daily for 5 days, sacrificed at day 6 (n=10) and day 30 (n=15); 2) administration of rat PTH (1-34) daily for 5 and 14 consecutive days (80 μg/kg/d s.c., Bachem), sacrificed at day 6 (n=9) and day 30 (n=15); 3) sham operated animals sacrificed at day 30 (n=5), and not operated control animals receiving saline (n=6) sacrificed at day 6 and at day 30. All animals received BrdU ([…]) for 5 consecutive days. BrdU and cytokine treatment were started 12-24 hours after LAD occlusion.
At day 6 (n=10) and day 30 (n=10), hearts were excised. After fixation in 4% phosphate buffered formalin the hearts were cut transversally into 2 mm thick slices and embedded in paraffin. 4 μm thick sections were cut and mounted on positively charged glass slides. Standard histological procedures (hematoxilin/eosin and Masson trichrome) and immunostaining (see below) were performed.
For immunostaining mounted tissue sections were deparaffinized by rinsing 3×5 minutes in xylene followed by 2×5 minutes 100%, 2×5 minutes 96%, and 2×5 minutes 70% ethanol rinses. Endogenous peroxidases were quenched in 7.5% H2O2 in distilled water for 10 minutes. After rinsing in distilled water for 10 minutes and 2×5 minutes in TRIS-Buffer, pH 7.5, the slides were incubated at room temperature for 60 minutes with following primary antibodies: CD45 (rat anti-mouse, BD Pharmingen), ICAM-1 (goat anti-mouse, R&D), CD34 (rat anti-mouse, Linaris), Ki67 (goat anti-mouse, Santa Cruz) or BrdU (mouse monoclonal anti-BrdU, BD Pharmingen). Pre-treatment was performed for 30 minutes (microwave 750 W) using TRS 6 (Dako) for CD45, Glykol (biologo) for CD34, Retrievagen A (BD Pharmingen) for BrdU, and citrate buffer (10 mM, pH 6.0) for Ki67.
For detection of the immunoreaction Avidin-Biotinylated enzyme Comlex-Rat IgG, Avidin-Biotinylated enzyme Comlex-Goat IgG (both from Vector) or rabbit anti-goat IgG (DAKO) were used. Aminoethylcarbazol was used as chromogen (incubation 10 minutes). Thereafter, the slides were rinsed in running water and counterstained with hematoxilin Gill's Formula (Vector). Cover slides were mounted with Kaiser's glycerol gelatine. Doublestaining was performed for CD31 and Ki67 using an Avidin-Biotinylated enzyme Comlex-Goat IgG detection system and diaminobenzidine as chromogen and the APAAP-Rat system and chromogen red (all from Dako), respectively.
Quantitative assessments: a) granulation tissue: the number of BrdU and Ki76 positive nuclei were related to the total number of nuclei quantified in the granulation tissue. b) arterioles: only arterioles with high proliferative activity were enclosed.

myocardial function = assay: Pressure volume relations in vivo (conductance catheter) after MI, PTH treatment; set-up: species or system C57BL/6 mice
Protocol: Myocardial infarction was induced in male C57BL/6 mice 8-12 weeks of age by surgical occlusion of the left anterior descending artery (LAD) through a left anterolateral approach. Mice were anesthetized by intraperitoneal injection of a mixture of 100 mg/kg ketamine (Sigma Chemical Co., St. Louis, Mo.) and 5 mg/kg Xylazine (Sigma), intubated and artificially ventilated by a mouse ventilator (HUGO SACHS, March, Germany) with 200 strokes/min and 200 μl/stroke. Animal care and all experimental procedures were performed in strict accordance to the German and National Institutes of Health animal legislation guidelines and were approved by the local animal care and use committees.
as §1
For evaluation of pressure-volume relationships in vivo, surviving mice of the group 1) MI day 6 (n=6) and day 30 (n=6), 2) MI+PTH day 6 (n=6) and day 30 (n=6), and 3) sham (n=5) and control (n=6) animals were anesthetized with thiopental (100 mg/kg, i.p.), intubated and ventilated (MiniVent, HUGO SACHS, Freiburg, Germany). After catheterization via the right carotid artery an impedance-micromanometer catheter (Millar Instruments, Houston, Tex.) was introduced into the left ventricle. Raw conductance volumes were corrected for parallel conductance by the hypertonic saline dilution method. For absolute volume measurements, the catheter was calibrated with known volumes of heparin treated mouse blood. Pressure-volume signals were recorded at steady state and during transient preload reduction achieved by vena cava occlusion to obtain values independent of cardiac afterload^45. Data analyses were performed as previously described^44 using PVAN analysis software (HUGO SACHS, March, Germany).

SDF-1 = SDF-1 expression in ischemic myocardium after PTH treatment; assay type: in vivo, mice; conditions: 48 hours after PTH treatment

rat PTH (1-34)
BrdU positive cells within the granulation tissue ([1]; 6 days after MI): 72.1±2.4% | Ki67 and BrdU positive cells within the remote area ([1]; 6 days after MI): less than 1% | Ki67 positive cells within the granulation tissue ([1]; 6 days after MI): 34.8±4.8% | Ki67 positive endothelial cells associated with CD31 positive arterioles ([1]; compared to saline treated animals): high numbers | BrdU positive cells in the periinfarct region ([1]; day 30): 99.1±25.0 /mm^2 | maximum LV pressure (myocardial function; PTH treatment of sham operated animals): 80.3±2.1 mmHg | arterial elastance (Ea) (myocardial function; day 6 after MI): 6.1±0.5 mmHg/μl and 6.0 mmHg/μl | cardiac output (myocardial function; day 6 after MI): 5537 µL/min | contractility (myocardial function; day 6 after MI): 4742±394 mmHg/sec | ejection fraction (EF) (myocardial function; day 6 after MI): 30% | stroke work (myocardial function; day 6 after MI): increased | diastolic function (Tau glantz) (myocardial function; day 6 after MI, vs saline): without significant changes | arterial elastance (Ea) (myocardial function; day 30 after MI): 7.2±0.5 mmHg/μl and 7.1 mmHg/μl | cardiac output (myocardial function; day 30 after MI): 3810±205 | diastolic relaxation (Tau Glantz) (myocardial function; day 30 after MI): 12.0 ± 0.8 ms | ejection fraction (EF) (myocardial function; day 30 after MI): 29.0±7.1% and 29% | enddiastolic volume (EDV) (myocardial function; day 30 after MI): 34.4±6.1 | stroke work (myocardial function; day 30 after MI): 382±59 mmHg×μl | homing factor SDF-1 in the ischemic myocardium (SDF-1): upregulated
